Our source for the Activity values is ChEMBL document CHEMBL5715954, “Silencing c-Myc translation as a therapeutic strategy through targeting PI3Kδ and CK1ε in hematological malignancies” (Blood, 2017).

Common to all, as to set-up: scale not given: the % may be the effect or the level left
Experiment [1] concerns the target T1, Serine/threonine-protein kinase BRSK2 (Homo sapiens) (UniProt Q8IWQ3).
T1 sequence (whole entry): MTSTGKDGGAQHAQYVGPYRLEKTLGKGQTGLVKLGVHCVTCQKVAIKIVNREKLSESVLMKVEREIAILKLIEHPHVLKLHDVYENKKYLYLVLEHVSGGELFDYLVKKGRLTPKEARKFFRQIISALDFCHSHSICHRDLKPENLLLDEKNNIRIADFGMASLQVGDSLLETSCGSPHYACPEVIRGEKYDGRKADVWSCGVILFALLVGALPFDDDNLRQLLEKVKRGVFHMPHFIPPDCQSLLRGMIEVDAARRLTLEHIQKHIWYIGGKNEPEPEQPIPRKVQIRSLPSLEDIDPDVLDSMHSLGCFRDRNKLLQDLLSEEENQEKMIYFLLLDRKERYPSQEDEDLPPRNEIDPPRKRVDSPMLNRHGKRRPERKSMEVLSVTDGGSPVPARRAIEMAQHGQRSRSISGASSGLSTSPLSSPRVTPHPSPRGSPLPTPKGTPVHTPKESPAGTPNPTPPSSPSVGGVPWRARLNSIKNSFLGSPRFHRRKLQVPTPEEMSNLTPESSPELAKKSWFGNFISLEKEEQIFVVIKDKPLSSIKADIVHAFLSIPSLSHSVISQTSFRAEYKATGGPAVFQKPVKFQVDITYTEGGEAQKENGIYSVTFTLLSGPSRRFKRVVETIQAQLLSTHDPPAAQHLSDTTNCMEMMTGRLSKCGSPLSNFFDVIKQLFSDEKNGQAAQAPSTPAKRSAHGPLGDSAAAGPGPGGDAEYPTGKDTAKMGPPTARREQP
The experiment is described as follows: Inhibition of human BRSK2 assessed as enzyme activity at 1 uM using KKLNRTLSFAEPG as substrate preincubated for 20 mins followed by [gamma-33P]-ATP addition and measured after 120 mins by radiometric Hot-SpotSM Kinase assay relative to control.

Experiment [2] concerns the target Calcium/calmodulin-dependent protein kinase kinase 1 (Homo sapiens) (UniProt Q8N5S9). The experiment can be described thus: Inhibition of human CAMKK1 assessed as enzyme activity at 1 uM using myelin basic protein as substrate preincubated for 20 mins followed by [gamma-33P]-ATP addition and measured after 120 mins by radiometric Hot-SpotSM Kinase assay relative to control.

The target in experiment [3] is CDK6/cyclin D1 (Homo sapiens) (UniProt P24385+Q00534). The experiment is described as follows: Inhibition of human CDK6/cyclin D1 assessed as enzyme activity at 1 uM using RB Protein as substrate preincubated for 20 mins followed by [gamma-33P]-ATP addition and measured after 120 mins by radiometric Hot-SpotSM Kinase assay relative to control. It is filed as protein-complex assay.

Experiment [4] deals with CDK6/cyclin D3 (Homo sapiens) (UniProt P30281+Q00534). The experiment can be described thus: Inhibition of human CDK6/cyclin D3 assessed as enzyme activity at 1 uM using RB Protein as substrate preincubated for 20 mins followed by [gamma-33P]-ATP addition and measured after 120 mins by radiometric Hot-SpotSM Kinase assay relative to control. It is filed as protein-complex assay.

Experiment [5] deals with Ephrin type-A receptor 5 (Homo sapiens) (UniProt P54756). The experiment can be described thus: Inhibition of human EPHA5 assessed as enzyme activity at 1 uM using poly[Glu:Tyr] (4:1) as substrate preincubated for 20 mins followed by [gamma-33P]-ATP addition and measured after 120 mins by radiometric Hot-SpotSM Kinase assay relative to control.
Experiment [6] deals with T2, Mitogen-activated protein kinase 15 (Homo sapiens) (UniProt Q8TD08).
T2 sequence (whole entry): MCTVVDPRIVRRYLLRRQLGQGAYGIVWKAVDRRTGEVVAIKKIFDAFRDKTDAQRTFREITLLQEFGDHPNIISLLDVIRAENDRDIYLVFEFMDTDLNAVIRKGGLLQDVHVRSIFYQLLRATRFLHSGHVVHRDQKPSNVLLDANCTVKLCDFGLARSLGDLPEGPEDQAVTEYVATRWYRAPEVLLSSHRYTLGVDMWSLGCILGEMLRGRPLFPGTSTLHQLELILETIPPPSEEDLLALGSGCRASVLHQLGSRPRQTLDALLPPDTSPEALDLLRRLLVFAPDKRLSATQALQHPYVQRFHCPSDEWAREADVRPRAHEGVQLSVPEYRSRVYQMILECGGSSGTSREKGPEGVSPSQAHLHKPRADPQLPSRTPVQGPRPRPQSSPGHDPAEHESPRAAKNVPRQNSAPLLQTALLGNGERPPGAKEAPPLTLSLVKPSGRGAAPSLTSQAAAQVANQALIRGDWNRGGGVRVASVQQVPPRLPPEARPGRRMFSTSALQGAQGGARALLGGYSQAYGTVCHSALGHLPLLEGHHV
The experiment can be described thus: Inhibition of human ERK7 assessed as enzyme activity at 1 uM using myelin basic protein as substrate preincubated for 20 mins followed by [gamma-33P]-ATP addition and measured after 120 mins by radiometric Hot-SpotSM Kinase assay relative to control.

The target in experiment [7] is Insulin receptor-related protein (Homo sapiens) (UniProt P14616). The experiment can be described thus: Inhibition of human IRR assessed as enzyme activity at 1 uM using myelin basic protein as substrate preincubated for 20 mins followed by [gamma-33P]-ATP addition and measured after 120 mins by radiometric Hot-SpotSM Kinase assay relative to control.
Experiment [8] concerns the target RAF proto-oncogene serine/threonine-protein kinase (Homo sapiens) (UniProt P04049). The experiment is described as follows: Inhibition of human RAF1 assessed as enzyme activity at 1 uM using MEK1 (K97R) as substrate preincubated for 20 mins followed by [gamma-33P]-ATP addition and measured after 120 mins by radiometric Hot-SpotSM Kinase assay relative to control.

Experiment [9] concerns the target Ribosomal protein S6 kinase alpha-3 (Homo sapiens) (UniProt P51812). The experiment can be described thus: Inhibition of human RSK2 assessed as enzyme activity at 1 uM using KKLNRTLSVA as substrate preincubated for 20 mins followed by [gamma-33P]-ATP addition and measured after 120 mins by radiometric Hot-SpotSM Kinase assay relative to control.
The target of experiment [10] is Citron Rho-interacting kinase (Homo sapiens) (UniProt O14578). The experiment is described as follows: Inhibition of human STK21 assessed as enzyme activity at 1 uM using KKRPQRRYSNVF as substrate preincubated for 20 mins followed by [gamma-33P]-ATP addition and measured after 120 mins by radiometric Hot-SpotSM Kinase assay relative to control.
Experiment [11] has as its target T3, Testis-specific serine/threonine-protein kinase 3 (Homo sapiens) (UniProt Q96PN8).
T3 sequence (whole entry): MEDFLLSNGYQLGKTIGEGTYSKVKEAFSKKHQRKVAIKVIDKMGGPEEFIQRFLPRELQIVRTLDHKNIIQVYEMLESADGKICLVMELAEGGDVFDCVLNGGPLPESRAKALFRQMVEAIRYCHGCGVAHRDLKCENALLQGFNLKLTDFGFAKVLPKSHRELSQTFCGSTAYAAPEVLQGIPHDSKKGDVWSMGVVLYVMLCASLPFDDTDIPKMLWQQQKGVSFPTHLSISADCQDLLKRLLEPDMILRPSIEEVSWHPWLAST
The experiment can be described thus: Inhibition of human TSSK3 assessed as enzyme activity at 1 uM using KKKVSRSGLYRSPSMPENLNRPR as substrate preincubated for 20 mins followed by [gamma-33P]-ATP addition and measured after 120 mins by radiometric Hot-SpotSM Kinase assay relative to control.

Citron Rho-interacting kinase (Homo sapiens), sequence (O14578 whole entry): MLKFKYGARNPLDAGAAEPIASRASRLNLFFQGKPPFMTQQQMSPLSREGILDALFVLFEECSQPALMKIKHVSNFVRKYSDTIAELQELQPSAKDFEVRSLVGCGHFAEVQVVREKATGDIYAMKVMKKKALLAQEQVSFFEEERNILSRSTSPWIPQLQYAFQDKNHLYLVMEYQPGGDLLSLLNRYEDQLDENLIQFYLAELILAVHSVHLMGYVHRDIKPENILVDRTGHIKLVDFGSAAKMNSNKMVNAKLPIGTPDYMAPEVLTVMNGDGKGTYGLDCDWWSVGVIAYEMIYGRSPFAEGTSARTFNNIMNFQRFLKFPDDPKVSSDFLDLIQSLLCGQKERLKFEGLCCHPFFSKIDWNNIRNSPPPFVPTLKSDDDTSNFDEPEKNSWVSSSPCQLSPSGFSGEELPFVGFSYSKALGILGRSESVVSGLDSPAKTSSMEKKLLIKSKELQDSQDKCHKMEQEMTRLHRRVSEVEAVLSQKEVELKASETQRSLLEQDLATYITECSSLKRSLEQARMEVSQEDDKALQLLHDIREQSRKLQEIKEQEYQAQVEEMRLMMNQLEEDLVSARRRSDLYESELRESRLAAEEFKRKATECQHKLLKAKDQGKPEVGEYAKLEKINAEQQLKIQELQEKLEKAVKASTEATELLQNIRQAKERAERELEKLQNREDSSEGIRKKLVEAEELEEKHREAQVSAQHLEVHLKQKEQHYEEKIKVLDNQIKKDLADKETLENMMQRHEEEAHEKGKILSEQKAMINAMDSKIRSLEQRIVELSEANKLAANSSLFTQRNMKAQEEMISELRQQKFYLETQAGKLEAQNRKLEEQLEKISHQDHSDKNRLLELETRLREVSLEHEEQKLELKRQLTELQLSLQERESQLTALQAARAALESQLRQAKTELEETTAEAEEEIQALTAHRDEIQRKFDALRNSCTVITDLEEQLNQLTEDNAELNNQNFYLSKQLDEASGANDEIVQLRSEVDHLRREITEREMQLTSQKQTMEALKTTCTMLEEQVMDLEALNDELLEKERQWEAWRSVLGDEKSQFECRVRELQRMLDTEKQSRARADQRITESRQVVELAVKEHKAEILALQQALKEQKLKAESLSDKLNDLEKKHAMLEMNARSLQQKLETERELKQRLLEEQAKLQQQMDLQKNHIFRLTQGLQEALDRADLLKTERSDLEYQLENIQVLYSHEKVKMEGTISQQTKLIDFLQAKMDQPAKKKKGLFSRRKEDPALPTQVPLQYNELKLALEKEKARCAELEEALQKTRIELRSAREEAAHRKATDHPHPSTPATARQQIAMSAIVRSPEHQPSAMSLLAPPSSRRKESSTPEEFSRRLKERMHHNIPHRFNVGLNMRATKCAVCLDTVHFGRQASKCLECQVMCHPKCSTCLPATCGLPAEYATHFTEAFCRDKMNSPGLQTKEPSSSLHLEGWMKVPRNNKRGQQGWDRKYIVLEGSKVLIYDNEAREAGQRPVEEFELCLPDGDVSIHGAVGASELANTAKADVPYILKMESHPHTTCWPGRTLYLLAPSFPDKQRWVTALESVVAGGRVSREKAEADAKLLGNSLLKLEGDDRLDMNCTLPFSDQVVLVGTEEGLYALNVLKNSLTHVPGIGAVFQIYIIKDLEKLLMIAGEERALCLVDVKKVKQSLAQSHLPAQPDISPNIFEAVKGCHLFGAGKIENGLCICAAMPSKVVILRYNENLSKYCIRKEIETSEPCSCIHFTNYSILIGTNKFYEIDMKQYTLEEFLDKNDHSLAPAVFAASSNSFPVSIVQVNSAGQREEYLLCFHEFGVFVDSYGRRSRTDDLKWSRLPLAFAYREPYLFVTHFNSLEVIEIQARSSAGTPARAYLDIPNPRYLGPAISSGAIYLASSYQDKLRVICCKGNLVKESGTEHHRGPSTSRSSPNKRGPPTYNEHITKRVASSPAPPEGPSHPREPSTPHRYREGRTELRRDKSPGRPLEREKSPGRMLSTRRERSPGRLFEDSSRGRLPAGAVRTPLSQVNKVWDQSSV
Calcium/calmodulin-dependent protein kinase kinase 1 (Homo sapiens), sequence (Q8N5S9 whole entry, looked up): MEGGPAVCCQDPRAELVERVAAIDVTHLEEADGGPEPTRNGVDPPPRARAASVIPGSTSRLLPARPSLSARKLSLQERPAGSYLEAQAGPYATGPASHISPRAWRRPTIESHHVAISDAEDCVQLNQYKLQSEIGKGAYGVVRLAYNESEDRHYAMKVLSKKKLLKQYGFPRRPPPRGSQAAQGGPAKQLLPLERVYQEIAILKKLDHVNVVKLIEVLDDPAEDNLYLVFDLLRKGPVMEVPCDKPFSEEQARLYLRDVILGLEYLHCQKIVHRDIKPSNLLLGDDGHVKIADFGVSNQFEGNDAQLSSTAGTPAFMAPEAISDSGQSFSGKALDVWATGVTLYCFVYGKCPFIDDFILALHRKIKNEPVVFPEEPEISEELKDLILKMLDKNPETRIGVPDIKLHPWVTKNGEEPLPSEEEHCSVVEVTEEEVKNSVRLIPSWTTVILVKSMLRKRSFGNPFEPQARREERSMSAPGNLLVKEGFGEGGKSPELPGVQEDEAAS
Ephrin type-A receptor 5 (Homo sapiens), sequence (P54756 whole entry): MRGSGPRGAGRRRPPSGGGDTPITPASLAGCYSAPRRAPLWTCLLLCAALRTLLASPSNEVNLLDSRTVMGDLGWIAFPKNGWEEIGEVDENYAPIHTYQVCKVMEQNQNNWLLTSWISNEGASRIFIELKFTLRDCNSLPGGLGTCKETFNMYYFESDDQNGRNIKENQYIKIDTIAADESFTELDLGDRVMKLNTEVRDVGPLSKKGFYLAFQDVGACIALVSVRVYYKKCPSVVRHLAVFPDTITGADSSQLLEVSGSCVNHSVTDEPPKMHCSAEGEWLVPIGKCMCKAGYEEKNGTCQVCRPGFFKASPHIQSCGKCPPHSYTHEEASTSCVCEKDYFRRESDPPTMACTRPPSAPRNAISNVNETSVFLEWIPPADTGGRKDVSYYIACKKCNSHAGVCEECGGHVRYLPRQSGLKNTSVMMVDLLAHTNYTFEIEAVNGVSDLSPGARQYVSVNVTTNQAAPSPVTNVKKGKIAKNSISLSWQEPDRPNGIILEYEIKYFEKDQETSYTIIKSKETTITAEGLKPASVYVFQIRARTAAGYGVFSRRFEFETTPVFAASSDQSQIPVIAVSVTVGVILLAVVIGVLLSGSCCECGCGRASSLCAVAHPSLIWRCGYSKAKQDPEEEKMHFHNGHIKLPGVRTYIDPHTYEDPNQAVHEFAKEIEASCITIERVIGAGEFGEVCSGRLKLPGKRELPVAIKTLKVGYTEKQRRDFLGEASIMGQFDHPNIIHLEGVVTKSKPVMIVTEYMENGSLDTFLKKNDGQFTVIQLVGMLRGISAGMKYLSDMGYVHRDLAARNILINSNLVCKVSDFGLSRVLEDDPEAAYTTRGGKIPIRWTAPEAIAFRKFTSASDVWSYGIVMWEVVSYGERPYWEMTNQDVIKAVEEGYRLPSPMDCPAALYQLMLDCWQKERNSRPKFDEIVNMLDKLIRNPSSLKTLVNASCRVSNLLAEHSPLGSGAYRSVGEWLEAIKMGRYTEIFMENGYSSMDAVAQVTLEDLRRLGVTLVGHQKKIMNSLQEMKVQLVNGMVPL
Insulin receptor-related protein (Homo sapiens), sequence (P14616 27-742 limits assumed): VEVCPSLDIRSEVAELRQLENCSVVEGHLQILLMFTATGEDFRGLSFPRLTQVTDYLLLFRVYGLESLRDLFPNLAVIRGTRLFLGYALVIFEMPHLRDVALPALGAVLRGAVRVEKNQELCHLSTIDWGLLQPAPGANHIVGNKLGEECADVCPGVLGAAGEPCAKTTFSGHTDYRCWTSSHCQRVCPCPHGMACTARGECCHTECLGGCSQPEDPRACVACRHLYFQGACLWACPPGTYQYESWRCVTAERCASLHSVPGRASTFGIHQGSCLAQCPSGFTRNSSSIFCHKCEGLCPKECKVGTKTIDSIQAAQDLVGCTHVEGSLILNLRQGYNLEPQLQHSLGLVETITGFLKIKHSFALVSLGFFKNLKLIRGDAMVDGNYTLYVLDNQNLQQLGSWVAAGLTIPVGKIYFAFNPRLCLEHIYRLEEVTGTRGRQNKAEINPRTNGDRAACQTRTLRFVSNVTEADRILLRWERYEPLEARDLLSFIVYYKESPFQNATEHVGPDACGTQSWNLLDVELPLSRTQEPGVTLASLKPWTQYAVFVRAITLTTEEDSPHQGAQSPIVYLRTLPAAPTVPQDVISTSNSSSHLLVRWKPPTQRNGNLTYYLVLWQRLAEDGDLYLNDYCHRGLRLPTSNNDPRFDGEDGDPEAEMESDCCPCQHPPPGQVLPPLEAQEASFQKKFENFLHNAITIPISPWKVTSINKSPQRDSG
Insulin receptor-related protein (Homo sapiens), sequence (P14616 747-1297 limits assumed): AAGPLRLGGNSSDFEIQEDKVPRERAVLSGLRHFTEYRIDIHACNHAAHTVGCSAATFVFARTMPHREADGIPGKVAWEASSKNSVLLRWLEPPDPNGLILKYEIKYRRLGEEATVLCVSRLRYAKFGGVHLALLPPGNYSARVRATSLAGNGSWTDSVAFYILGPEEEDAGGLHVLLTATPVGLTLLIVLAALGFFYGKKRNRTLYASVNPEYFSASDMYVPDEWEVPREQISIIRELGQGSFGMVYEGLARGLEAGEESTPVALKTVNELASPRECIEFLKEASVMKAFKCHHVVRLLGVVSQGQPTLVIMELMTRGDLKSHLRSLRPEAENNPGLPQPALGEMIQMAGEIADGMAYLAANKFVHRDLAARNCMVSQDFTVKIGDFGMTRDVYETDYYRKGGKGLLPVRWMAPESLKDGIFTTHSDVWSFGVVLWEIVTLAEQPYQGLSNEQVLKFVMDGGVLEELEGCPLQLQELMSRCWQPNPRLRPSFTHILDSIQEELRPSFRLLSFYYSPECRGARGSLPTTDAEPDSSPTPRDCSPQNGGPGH

Turning to `C[C@H](Nc1ncnc2nc[nH]c12)c1cc2cccc(Cl)c2c(=O)n1-c1ccccc1`, the Activity in experiment [1] was found to be 95.1%; in [2], 98.1%; in [3], 91.3%; in experiment [4] it was 96.5%; in [5], 104%; in experiment [6], 98.5%. The Activity came to 95.9% in experiment [7]; 93.5% in experiment [8]; 97.7% in [9]; 93.5% in experiment [10]; 109% in experiment [11].

Turning to `CC[C@H](Nc1ncnc2[nH]cnc12)c1nc2cccc(F)c2c(=O)n1-c1ccccc1`, the Activity worked out at 98.9% in [1]; 105% in experiment [2]; 94.6% in experiment [3]; 102% in experiment [4]; 105% in experiment [5]; 94.3% in experiment [6]. The Activity in experiment [7] came to 93.9%; in [8], 95.3%; in experiment [9] it was 101%; in [10], 101%; in [11], 102%.

Take `CC(C)Oc1ccc(-c2nn([C@@H](C)c3oc4ccc(F)cc4c(=O)c3-c3cccc(F)c3)c3ncnc(N)c23)cc1F` [UMBRALISIB]: the Activity stood at 99.1% in experiment [1]; 102% in experiment [2]; 89.2% in [3]; 97.8% in experiment [4]; 103% in [5]; 88.3% in experiment [6]. Further, the Activity came out at 96.4% in experiment [7]; 93.1% in experiment [8]; 106% in experiment [9]; 113% in [10]; 107% in experiment [11].
